From the supplement of paper PMC10307832

Legend:
Assay in all cases: relative viability (nuclei count vs DMSO), 5 days (fraction); higher = more cells survive
Etoposide + Olaparib = compound: COc1cc([C@@H]2c3cc4c(cc3[C@@H](O[C@@H]3O[C@@H]5CO[C@@H](C)O[C@H]5[C@H](O)[C@H]3O)[C@H]3COC(=O)[C@H]23)OCO4)cc(OC)c1O [Etoposide] + O=C(c1cc(Cc2n[nH]c(=O)c3ccccc23)ccc1F)N1CCN(C(=O)C2CC2)CC1 [Olaparib] (partner 8 µM)
Method in brief: (§1)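 Relative viability divides the nuclei count in treated wells by that in vehicle wells. Lung cancer cell lines were seeded in 1536-well plates, dosed by pin tool the next day, and fixed and stained after 5 days in one step with final 0.05% Triton X-100, 1% formaldehyde and 1 ug/ml Hoechst. Dosing was a single drug or a fixed anchor-drug dose plus five library-drug doses (not always all listed) in √10 steps, and values are medians of duplicate plates imaged at 4×.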

Bleomycin + Luminespib = compound: CC1=C(N=C(N=C1N)[C@H](CC(=O)N)NC[C@@H](C(=O)N)N)C(=O)N[C@@H]([C@H](C2=CN=CN2)OC3C(C(C(C(O3)CO)O)O)OC4C(C(C(C(O4)CO)O)OC(=O)N)O)C(=O)N[C@H](C)[C@H]([C@H](C)C(=O)N[C@@H]([C@@H](C)O)C(=O)NCCC5=NC(=CS5)C6=NC(=CS6)C(=O)NCCC[S+](C)C)O [Bleomycin] + CCNC(=O)c1noc(-c2cc(C(C)C)c(O)cc2O)c1-c1ccc(CN2CCOCC2)cc1 [Luminespib] (partner 0.01 µM); conditions: main component drawn
Method in brief: as §1

Bleomycin + Trametinib = compound: CC1=C(N=C(N=C1N)[C@H](CC(=O)N)NC[C@@H](C(=O)N)N)C(=O)N[C@@H]([C@H](C2=CN=CN2)OC3C(C(C(C(O3)CO)O)O)OC4C(C(C(C(O4)CO)O)OC(=O)N)O)C(=O)N[C@H](C)[C@H]([C@H](C)C(=O)N[C@@H]([C@@H](C)O)C(=O)NCCC5=NC(=CS5)C6=NC(=CS6)C(=O)NCCC[S+](C)C)O [Bleomycin] + CC(=O)Nc1cccc(-n2c(=O)n(C3CC3)c(=O)c3c(Nc4ccc(I)cc4F)n(C)c(=O)c(C)c32)c1 [Trametinib] (partner 0.02 µM); conditions: main component drawn
Method in brief: as §1

Etoposide + Pictilisib = compound: COc1cc([C@@H]2c3cc4c(cc3[C@@H](O[C@@H]3O[C@@H]5CO[C@@H](C)O[C@H]5[C@H](O)[C@H]3O)[C@H]3COC(=O)[C@H]23)OCO4)cc(OC)c1O [Etoposide] + CS(=O)(=O)N1CCN(Cc2cc3nc(-c4cccc5[nH]ncc45)nc(N4CCOCC4)c3s2)CC1 [Pictilisib] (partner 1 µM)
Method in brief: as §1

Row | Cell Line | relative viability (Etoposide + Olaparib; first compound 0.01 µM) | relative viability (Etoposide + Olaparib; first compound 0.03162 µM) | relative viability (Etoposide + Olaparib; first compound 0.1 µM) | relative viability (Etoposide + Olaparib; first compound 0.3162 µM) | relative viability (Etoposide + Olaparib; first compound 1 µM) | relative viability (Bleomycin + Luminespib; first compound 0.01 µM) | relative viability (Bleomycin + Luminespib; first compound 0.03162 µM) | relative viability (Bleomycin + Luminespib; first compound 0.1 µM) | relative viability (Bleomycin + Luminespib; first compound 0.3162 µM) | relative viability (Bleomycin + Luminespib; first compound 1 µM) | relative viability (Bleomycin + Trametinib; first compound 0.01 µM) | relative viability (Bleomycin + Trametinib; first compound 0.03162 µM) | relative viability (Bleomycin + Trametinib; first compound 0.1 µM) | relative viability (Bleomycin + Trametinib; first compound 0.3162 µM) | relative viability (Bleomycin + Trametinib; first compound 1 µM) | relative viability (Etoposide + Pictilisib; first compound 0.01 µM) | relative viability (Etoposide + Pictilisib; first compound 0.03162 µM) | relative viability (Etoposide + Pictilisib; first compound 0.1 µM) | relative viability (Etoposide + Pictilisib; first compound 0.3162 µM) | relative viability (Etoposide + Pictilisib; first compound 1 µM)
1 | NCI-H2009 | 0.64 | 0.627 | 0.692 | 0.45 | 0.275 | 0.962 | 1.04 | 0.961 | 0.704 | 0.618 | 0.296 | 0.275 | 0.276 | 0.258 | 0.224 | 0.693 | 0.898 | 0.54 | 0.543 | 0.236
2 | NCI-H2023 | 0.415 | 0.452 | 0.356 | 0.137 | 0.111 | 0.526 | 0.531 | 0.454 | 0.128 | 0.0778 | 0.277 | 0.383 | 0.363 | 0.148 | 0.129 | 0.225 | 0.255 | 0.145 | 0.124 | 0.0878
3 | NCI-H2085 | 0.755 | 0.731 | 0.746 | 0.375 | 0.3 | 0.408 | 0.436 | 0.369 | 0.314 | 0.279 | 0.549 | 0.514 | 0.384 | 0.243 | 0.226 | 0.513 | 0.491 | 0.324 | 0.433 | 0.287
4 | NCI-H2087 | 0.579 | 0.564 | 0.489 | 0.319 | 0.161 | – | 0.162 | 0.188 | 0.124 | 0.142 | 0.204 | 0.146 | 0.176 | 0.177 | 0.135 | – | 1.09 | 0.551 | 0.543 | 0.235
5 | NCI-H2126 | 0.882 | 0.938 | 0.658 | 0.585 | 0.336 | 0.954 | 0.934 | 0.872 | 0.566 | 0.551 | 0.525 | 0.583 | 0.594 | 0.52 | 0.508 | 0.536 | 0.55 | 0.419 | 0.392 | 0.332
6 | NCI-H2170 | 0.581 | 0.621 | – | 0.514 | 0.29 | 0.604 | 0.494 | 0.593 | 0.355 | 0.515 | 0.89 | 0.89 | 0.808 | 0.559 | 0.468 | 0.315 | 0.306 | – | 0.336 | 0.255
7 | NCI-H2228 | 0.586 | 0.524 | 0.776 | 0.296 | 0.146 | 0.149 | 0.129 | 0.186 | 0.128 | 0.15 | 0.537 | 0.468 | 0.431 | 0.269 | 0.26 | 0.351 | 0.411 | 0.167 | 0.229 | 0.109
8 | NCI-H2347 | 0.55 | 0.543 | 0.58 | 0.353 | 0.411 | 0.275 | 0.381 | 0.431 | 0.235 | 0.385 | 0.309 | 0.254 | 0.29 | 0.279 | 0.226 | 0.921 | 0.757 | 0.309 | 0.285 | 0.392
